Key:
[1] = tested on: SCC-25; assay: Growth inhibition of cancer cell lines, 72 hrs (CellTiter-Glo); type: cell-based; conditions: Homo sapiens, upper aerodigestive tract, squamous cell carcinoma
Procedure: (§1) Example C: Inhibition of Cancer Cell Growth by Treatment with PARP7 Inhibitors
(§2) Table A-2 and Table A-3 (below) represents the concentration that causes 50% growth inhibition (GI50) in a panel of cancer cell lines with Compound 18B and Compound 561. Cells were plated into 384-well plates at a pre-specified density in fetal bovine serum-containing media. Cells were treated with compound or vehicle (DMSO) 24 hrs later, and a day zero plate was collected for analysis. Test compound plates were incubated continuously for 72 hrs (Table A-2) or 144 hours (Table A-3) cell growth was assessed using a luminescent cell viability assay (CellTiter-Glo, Promega). The GI50was determined by correcting for the cell count at time zero (time of treatment) and plotting data as percent growth relative to vehicle-treated cells.

[2] = tested on: NCI-H647; assay: as above; type: cell-based; conditions: Homo sapiens, lung, mixed adenosquamous carcinoma
Procedure: as §1, §2

[3] = tested on: HDQ-P1; assay: as above; type: cell-based; conditions: Homo sapiens, breast, ductal carcinoma
Procedure: as §1, §2

[4] = tested on: GSU; assay: as above; type: cell-based; conditions: stomach, adenocarcinoma
Procedure: as §1, §2

[5] = tested on: Hs 578T; assay: as above; type: cell-based; conditions: Homo sapiens, breast, ductal carcinoma
Procedure: as §1, §2

[6] = tested on: LXF-289; assay: as above; type: cell-based; conditions: Homo sapiens, lung, adenocarcinoma
Procedure: as §1, §2

[7] = tested on: SNU-719; assay: as above; type: cell-based; conditions: stomach, not specified
Procedure: as §1, §2

[8] = tested on: SW 900; assay: as above; type: cell-based; conditions: Homo sapiens, SW900, lung, squamous cell carcinoma
Procedure: as §1, §2

[9] = tested on: CT26 cells; assay: Proliferation of CT26 cells in the presence of PARP7 inhibitors (CellTiter-Glo, 4 days); type: cell-based, mouse; conditions: CellTiter-Glo (FIG. 5)
Procedure: Example F: Proliferation of CT26 cells in the presence of PARP7 inhibitors
CT26 cells were plated in a 384-well plate and allowed to adhere for several hours before being treated with Compound 18B. Cells were incubated with compound for 4 days prior to processing with CellTiter-Glo reagent (Promega). Luminescence was measured with a Perkin Elmer Envision and percent inhibition was calculated using the vehicle (DMSO) average as 0% inhibition. Non-linear regression analysis was performed using a 4 parameter (variable slope) fit in GraphPad Prism.

[10] = tested on: NCI-H2087; assay: Growth inhibition of cancer cell lines, 144 hours (CellTiter-Glo); type: cell-based; conditions: Homo sapiens, lung adenocarcinoma
Procedure: as §1, §2

[11] = tested on: SCC-25; assay: as above; type: cell-based; conditions: Homo sapiens, tongue squamous cell carcinoma
Procedure: as §1, §2

[12] = tested on: SCaBER; assay: as above; type: cell-based; conditions: Homo sapiens, bladder squamous cell carcinoma
Procedure: as §1, §2

[13] = tested on: TUHR10TKB; assay: as above; type: cell-based; conditions: renal cell carcinoma
Procedure: as §1, §2

[14] = tested on: NCI-H647; assay: as above; type: cell-based; conditions: Homo sapiens, lung adenosquamous carcinoma
Procedure: as §1, §2

[15] = tested on: YD-10B; assay: as above; type: cell-based; conditions: tongue squamous cell carcinoma
Procedure: as §1, §2

[16] = tested on: A101D; assay: as above; type: cell-based; conditions: Homo sapiens, melanoma
Procedure: as §1, §2

[17] = tested on: EBC-1; assay: as above; type: cell-based; conditions: Homo sapiens, squamous cell lung carcinoma
Procedure: as §1, §2

[18] = tested on: AGS; assay: as above; type: cell-based; conditions: Homo sapiens, gastric adenocarcinoma
Procedure: as §1, §2

[19] = tested on: Caki-1; assay: as above; type: cell-based; conditions: Homo sapiens, clear cell renal cell carcinoma
Procedure: as §1, §2

[20] = tested on: COR-L105; assay: as above; type: cell-based; conditions: Homo sapiens, lung adenocarcinoma
Procedure: as §1, §2

[21] = tested on: MDA-MB-468; assay: as above; type: cell-based; conditions: Homo sapiens, breast adenocarcinoma
Procedure: as §1, §2

[22] = tested on: HCC1954; assay: as above; type: cell-based; conditions: Homo sapiens, ductal breast carcinoma
Procedure: as §1, §2

[23] = tested on: TYK-nu; assay: as above; type: cell-based; conditions: high grade ovarian serious adenocarcinoma
Procedure: as §1, §2

[24] = tested on: SK-MEL-2; assay: as above; type: cell-based; conditions: Homo sapiens, malignant melanoma
Procedure: as §1, §2

[25] = tested on: NCI-H1437; assay: as above; type: cell-based; conditions: Homo sapiens, lung adenocarcinoma
Procedure: as §1, §2

[26] = tested on: CAL-27; assay: as above; type: cell-based; conditions: Homo sapiens, tongue squamous cell carcinoma
Procedure: as §1, §2

[27] = tested on: ACC-MESO-1; assay: as above; type: cell-based; conditions: mesothelioma
Procedure: as §1, §2

[28] = tested on: NCI-H1944; assay: as above; type: cell-based; conditions: Homo sapiens, lung adenocarcinoma
Procedure: as §1, §2

[29] = tested on: KMRC-3; assay: as above; type: cell-based; conditions: clear cell renal carcinoma
Procedure: as §1, §2

[30] = tested on: LN-18; assay: as above; type: cell-based; conditions: Homo sapiens, glioblastoma
Procedure: as §1, §2

[31] = tested on: IA-LM; assay: as above; type: cell-based; conditions: large cell lung carcinoma
Procedure: as §1, §2

[32] = tested on: KALS-1; assay: as above; type: cell-based; conditions: Homo sapiens, glioblastoma
Procedure: as §1, §2

[33] = tested on: NCI-H1930; assay: as above; type: cell-based; conditions: Homo sapiens, small cell lung carcinoma
Procedure: as §1, §2

[34] = tested on: COLO 680N; assay: as above; type: cell-based; conditions: Homo sapiens, esophageal squamous cell carcinoma
Procedure: as §1, §2

[35] = tested on: NCI-H1373; assay: as above; type: cell-based; conditions: Homo sapiens, lung adenocarcinoma
Procedure: as §1, §2

[36] = tested on: HPAF-II; assay: as above; type: cell-based; conditions: Homo sapiens, pancreatic adenocarcinoma
Procedure: as §1, §2

[37] = tested on: NCI-H2066; assay: as above; type: cell-based; conditions: squamous cell lung carcinoma
Procedure: as §1, §2

[38] = tested on: NCI-H2291; assay: as above; type: cell-based; conditions: Homo sapiens, lung adenocarcinoma
Procedure: as §1, §2

[39] = tested on: NCI-H2347; assay: as above; type: cell-based; conditions: Homo sapiens, lung adenocarcinoma
Procedure: as §1, §2

[40] = tested on: TE-11; assay: as above; type: cell-based; conditions: Homo sapiens, esophageal squamous cell carcinoma
Procedure: as §1, §2

[41] = tested on: NUGC-3; assay: as above; type: cell-based; conditions: Homo sapiens, gastric adenocarcinoma
Procedure: as §1, §2

For `N#Cc1ccc(N2CCN(C(=O)c3cccc(OC[C@@H]4c5ccccc5CN4c4cn[nH]c(=O)c4C(F)(F)F)c3)CC2)nc1` (single isomer, unassigned) [Example 18 Isomer B], the GI50 [1] was < 100 nM, the GI50 [2] was < 100 nM and the GI50 [3] was 100 to 1000 nM. The GI50 [4] was < 100 nM, the GI50 [5] was 100 to 1000 nM and the GI50 [6] was 100 to 1000 nM. For the same compound, the GI50 [7] was 100 to 1000 nM, the GI50 [8] was < 100 nM and the “proliferation in CT26 cells in vitro” value [9] was “do not inhibit proliferation”.
For `C[C@@H](COCCC(=O)N1CCN(c2ncc(C(F)(F)F)cn2)CC1)Nc1cn[nH]c(=O)c1C(F)(F)F` [Example 561, 5-[[(2S)-1-(3-oxo-3-[4-[5-(trifluoromethyl)pyrimidin-2-yl]piperazin-1-yl]propoxy)propan-2-yl]amino]-4-(trifluoromethyl)-2,3-dihydropyridazin-3-one], the GI50 [10] was ≥ 1000 nM, the GI50 [11] was < 100 nM and the GI50 [12] was ≥ 1000 nM. For the same compound, the GI50 [13] was < 100 nM, the GI50 [14] was < 100 nM and the GI50 [15] was ≥ 1000 nM. For the same compound, the GI50 [16] was ≥ 1000 nM, the GI50 [17] was < 100 nM and the GI50 [18] was ≥ 1000 nM. For the same compound, the GI50 [19] was < 100 nM, the GI50 [20] was 100 to 1000 nM and the GI50 [21] was ≥ 1000 nM. The GI50 [22] was ≥ 1000 nM, the GI50 [23] was < 100 nM and the GI50 [24] was ≥ 1000 nM. The GI50 [25] was ≥ 1000 nM, the GI50 [26] was ≥ 1000 nM and the GI50 [27] was ≥ 1000 nM. For the same compound, the GI50 [28] was ≥ 1000 nM, the GI50 [29] was ≥ 1000 nM and the GI50 [30] was ≥ 1000 nM. For the same compound, the GI50 [31] was < 100 nM, the GI50 [32] was ≥ 1000 nM and the GI50 [33] was ≥ 1000 nM. The GI50 [34] was ≥ 1000 nM, the GI50 [35] was < 100 nM and the GI50 [36] was ≥ 1000 nM. For the same compound, the GI50 [37] was ≥ 1000 nM, the GI50 [38] was ≥ 1000 nM and the GI50 [39] was < 100 nM. The GI50 [40] was ≥ 1000 nM and the GI50 [41] was ≥ 1000 nM.
